From patent US6492373B2, “6-fluoro-1,4-dihydro-7-[4-(2-hydroxyiminoethyl)-1-piperazinyl]-4-oxoquinoline-3-carboxylic acid derivatives, their preparation and pharmaceutical compositions” (Pharmaceutical Industry Technology and Development Center, priority 2000, dated 2002)
In brackets after ≈: the same amount, converted by molar mass.

Key:
[1] = tested on: Staphylococcus aureus, Methicillin Resistant (MRSA); assay: In vitro antibacterial activity, MIC by broth dilution; format: cell-based; conditions: for MIC: Staphylococcus aureus, MRSA, 20-72 hours at 37° C., Mueller-Hinton broth
Escherichia coli = assay: as above; format: cell-based; conditions: for MIC: Escherichia coli, 20-72 hours at 37° C., Nutrient Broth
Mycobacterium ranae = assay: as above; format: cell-based; conditions: for MIC: Mycobacterium, 20-72 hours at 37° C., Brain Heart Infusion broth
Pseudomonas aeruginosa = assay: as above; format: cell-based; conditions: for MIC: Pseudomonas aeruginosa, 20-72 hours at 37° C., Nutrient Broth
Klebsiella pneumoniae = assay: as above; format: cell-based
Proteus vulgaris = assay: as above; format: cell-based; conditions: for MIC: Proteus vulgaris, 20-72 hours at 37° C., Mueller-Hinton broth
[2] = tested on: Staphylococcus pneumoniae, Erythromycin and Ampicillin resistant, clinical isolates; assay: as above; format: cell-based; conditions: for MIC: Staphylococcus, 20-72 hours at 37° C., Tryptic Soy Broth with 7% calf serum
[3] = tested on: Enterococcus faecalis, Vancomycin resistant, clinical isolates; assay: as above; format: cell-based; conditions: for MIC: Enterococcus faecalis, 20-72 hours at 37° C., Tryptic Soy Broth with 7% calf serum
CCRF-CEM (leukemia) = assay: NCI in vitro tumor cell growth inhibition (GI50); format: cell-based; conditions: Homo sapiens
HL-60 (TB) (leukemia) = assay: NCI in vitro tumor cell growth inhibition (GI50); format: cell-based; conditions: Homo sapiens
RPMI-8226 (leukemia) = assay: NCI in vitro tumor cell growth inhibition (GI50); format: cell-based; conditions: Homo sapiens
[4] = tested on: EKVX (non-small cell lung cancer); assay: NCI in vitro tumor cell growth inhibition (GI50); format: cell-based; conditions: Homo sapiens
[5] = tested on: HOP-62 (non-small cell lung cancer); assay: NCI in vitro tumor cell growth inhibition (GI50); format: cell-based; conditions: Homo sapiens
[6] = tested on: NCI-H226 (non-small cell lung cancer); assay: NCI in vitro tumor cell growth inhibition (GI50); format: cell-based; conditions: Homo sapiens
SK-OV-3 (ovarian cancer) = assay: NCI in vitro tumor cell growth inhibition (GI50); format: cell-based; conditions: Homo sapiens
SK-OV-4 (ovarian cancer) = assay: NCI in vitro tumor cell growth inhibition (GI50); format: cell-based; conditions: Homo sapiens
SK-OV-5 (ovarian cancer) = assay: NCI in vitro tumor cell growth inhibition (GI50); format: cell-based; conditions: Homo sapiens
CAKI-1 (renal cancer) = assay: NCI in vitro tumor cell growth inhibition (GI50); format: cell-based; conditions: Homo sapiens
RXF-393 (renal cancer) = assay: NCI in vitro tumor cell growth inhibition (GI50); format: cell-based; conditions: Homo sapiens
UO-31 (renal cancer) = assay: NCI in vitro tumor cell growth inhibition (GI50); format: cell-based; conditions: Homo sapiens
[7] = tested on: 60 human tumor cell lines; assay: NCI in vitro tumor cell growth inhibition, whole panel; format: cell-based; conditions: for GI50: Homo sapiens, Mean values over 60 cell lines tested; for Range: Ratio of GI50 value for the least sensitive cell to the most sensitive cell
[8] = 20-72 hours at 37° C., Nutrient Broth
[9] = Gentamicin, footnote b: MIC in μg/ml

| Compound | MIC [1] [µM] | MIC (Escherichia coli) [µM] | MIC (Mycobacterium ranae) [µM] | MIC (Pseudomonas aeruginosa) [µM] | MIC, Kp (Klebsiella pneumoniae; [8]) [µM] | MIC (Proteus vulgaris) [µM] | MIC [2] [µM] | MIC [3] [µM] | melting point | also measured |
| --- | --- | --- | --- | --- | --- | --- | --- | --- | --- | --- |
| CCn1cc(C(=O)O)c(=O)c2cc(F)c(N3CCN(CC(=NOC)c4ccc(OC)cc4)CC3)cc21 [Exp. 7, 1-Ethyl-6-fluoro-7-{4-[2-methoxyimino-2-(4-methoxyphenyl)-ethyl]-1-piperazinyl}-4-oxo-1,4-dihydroquinoline-3-carboxylic acid] | 1.57 (≈ 0.78 µg/mL) | 6.31 (≈ 3.13 µg/mL) | 202 (≈ 100 µg/mL) | 202 (≈ 100 µg/mL) | 1.57 | 6.31 (≈ 3.13 µg/mL) | 12.6 (≈ 6.26 µg/mL) | 12.6 (≈ 6.26 µg/mL) | 165 °C (dec.) | – |
| CCn1cc(C(=O)O)c(=O)c2cc(F)c(N3CCN(CC(C)=NO)CC3)cc21 [Exp. 2, 1-Ethyl-6-fluoro-7-[4-(2-hydroxyiminopropyl)-1-piperazinyl]-4-oxo-1,4-dihydroquinoline-3-carboxylic acid] | 0.51 (≈ 0.199 µg/mL) | 0.51 (≈ 0.199 µg/mL) | 32.1 (≈ 12.5 µg/mL) | 16 (≈ 6.25 µg/mL) | 0.13 | 2 (≈ 0.781 µg/mL) | – | – | 218 °C (dec.) | – |
| CCn1cc(C(=O)O)c(=O)c2cc(F)c(N3CCNCC3)cc21 [Norfloxacin, reference compound] | 4.89 (≈ 1.56 µg/mL) | 0.63 (≈ 0.201 µg/mL) | 9.81 (≈ 3.13 µg/mL) | 1.22 (≈ 0.39 µg/mL) | 0.041 | 0.16 (≈ 0.0511 µg/mL) | 19.6 (≈ 6.26 µg/mL) | 9.81 (≈ 3.13 µg/mL) | – | – |
| Gentamicin [reference compound] | – | – | – | – | – | – | – | – | – | MIC, MRSA [1, 9]: 0.78 µg/mL; MIC, Ec (Escherichia coli; [9]): 0.20 µg/mL; MIC, Mr (Mycobacterium ranae; [9]): 0.20 µg/mL; MIC, Pa (Pseudomonas aeruginosa; [9]): 0.39 µg/mL; MIC, Kp (Klebsiella pneumoniae; [9]): 0.2 µg/mL; MIC, Pv (Proteus vulgaris; [9]): 0.1 µg/mL; MIC, SpEAR [2, 9]: 100 µg/mL; MIC, EfVRE [3, 9]: 50 µg/mL |
| CCn1cc(C(=O)O)c(=O)c2cc(F)c(N3CCN(CC(=NO)c4ccc(F)cc4)CC3)cc21 [Exp. 9, 1-Ethyl-6-fluoro-7-{4-[2-(4-fluorophenyl)-2-hydroxyimino-ethyl]-1-piperazinyl}-4-oxo-1,4-dihydro-3-quinolinecarboxylic acid] | – | – | – | – | – | – | – | – | – | GI50 (CCRF-CEM (leukemia)): 10.5 µM; GI50 (HL-60 (TB) (leukemia)): 0.98 µM; GI50 (RPMI-8226 (leukemia)): 22.9 µM; GI50 [4]: 42.6 µM; GI50 [5]: 42.6 µM; GI50 [6]: 53.5 µM; GI50 (SK-OV-3 (ovarian cancer)): 32 µM; GI50 (SK-OV-4 (ovarian cancer)): 39.4 µM; GI50 (SK-OV-5 (ovarian cancer)): > 100 µM; GI50 (CAKI-1 (renal cancer)): 1.89 µM; GI50 (RXF-393 (renal cancer)): 0.17 µM; GI50 (UO-31 (renal cancer)): 0.13 µM; GI50 [7]: 21.5 µM; Range [7]: 758 |
| COc1ccc(C(=O)CN2CCN(c3cc4c(cc3F)c(=O)c(C(=O)O)cn4-c3ccc(N)cc3F)CC2)cc1 [Exp. 12, 1-(4-amino-2-fluorophenyl)-6-fluoro-7-{4-[2-(4-methoxy-phenyl)-2-oxoethyl]-1-piperazinyl}-4-oxo-1,4-dihydroquinoline-3-carboxylic acid] | 0.55 (≈ 0.302 µg/mL) | 0.55 (≈ 0.302 µg/mL) | 18.2 (≈ 9.98 µg/mL) | 5.74 (≈ 3.15 µg/mL) | 0.05 | 18.2 (≈ 9.98 µg/mL) | 1.82 (≈ 0.998 µg/mL) | 5.47 (≈ 3 µg/mL) | 143 °C (dec.) | – |
| CCn1cc(C(=O)O)c(=O)c2cc(F)c(N3CCN(CC(=O)c4ccccc4)CC3)c(F)c21 [Exp. 4, 1-Ethyl-6,8-difluoro-1,4-dihydro-4-oxo-7-(4-phenacyl-1-piperazinyl)-quinoline-3-carboxylic acid] | 1.71 (≈ 0.779 µg/mL) | 0.22 (≈ 0.1 µg/mL) | 3.43 (≈ 1.56 µg/mL) | 0.86 (≈ 0.392 µg/mL) | 0.055 | 0.22 (≈ 0.1 µg/mL) | 13.7 (≈ 6.24 µg/mL) | 13.7 (≈ 6.24 µg/mL) | 167 °C (dec.) | – |
| CCn1cc(C(=O)O)c(=O)c2cc(F)c(N3CCN(CC(=NO)c4ccc(Cl)cc4)CC3)cc21 [Exp. 10, 1-Ethyl-6-fluoro-7-{4-[2-(4-chlorophenyl)-2-hydroxyimino-ethyl]-1-piperazinyl}-4-oxo-1,4-dihydro-3-quinolinecarboxylic acid] | – | – | – | – | – | – | – | – | – | GI50 (CCRF-CEM (leukemia)): 67.4 µM; GI50 (HL-60 (TB) (leukemia)): 1.29 µM; GI50 (RPMI-8226 (leukemia)): 3.21 µM; GI50 [4]: 19.2 µM; GI50 [5]: 28.6 µM; GI50 [6]: 20.3 µM; GI50 (SK-OV-3 (ovarian cancer)): 28.7 µM; GI50 (SK-OV-4 (ovarian cancer)): 32.1 µM; GI50 (SK-OV-5 (ovarian cancer)): 22.8 µM; GI50 (CAKI-1 (renal cancer)): 0.4 µM; GI50 (RXF-393 (renal cancer)): 0.72 µM; GI50 (UO-31 (renal cancer)): 0.03 µM; GI50 [7]: 9.31 µM; Range [7]: 2291 |
| CCn1cc(C(=O)O)c(=O)c2cc(F)c(N3CCN(CC(C)NN)CC3)cc21 (stereo not shown) [Exp. 1, 1-Ethyl-6-fluoro-7-[4-(2-hydrazinopropyl)-1-piperazinyl]-4-oxo-1,4-dihydroquinoline-3-carboxylic acid] | 4.01 (≈ 1.57 µg/mL) | 2.01 (≈ 0.787 µg/mL) | 16.1 (≈ 6.3 µg/mL) | 16.1 (≈ 6.3 µg/mL) | 0.064 | 2.01 (≈ 0.787 µg/mL) | 32.1 (≈ 12.6 µg/mL) | 16.1 (≈ 6.3 µg/mL) | 208 °C (dec.) | – |
| CCn1cc(C(=O)O)c(=O)c2cc(F)c(N3CCN(CC(=NO)c4ccc(OC)cc4)CC3)c(F)c21 [Exp. 6, 1-Ethyl-6,8-difluoro-7-{4-[2-hydroxyimino-2-(4-methoxy-phenyl)ethyl]-1-piperazinyl}-4-oxo-1,4-dihydroquinoline-3-carboxylic acid] | 0.2 (≈ 0.1 µg/mL) | 0.4 (≈ 0.2 µg/mL) | 6.34 (≈ 3.17 µg/mL) | 3.16 (≈ 1.58 µg/mL) | 0.10 | 0.4 (≈ 0.2 µg/mL) | 6.34 (≈ 3.17 µg/mL) | 3.16 (≈ 1.58 µg/mL) | 176 °C (dec.) | – |
| CCn1cc(C(=O)O)c(=O)c2cc(F)c(N3CCN(C(=N)C(O)c4ccc(F)cc4)CC3)c(F)c21 (stereo not shown) [Exp. 11, 1-Ethyl-6,8-difluoro-7-{4-[2-(4-fluorophenyl)-2-hydroxy-iminoethyl]-1-piperazinyl}-4-oxo-1,4-dihydro-3-quinolinecarboxylic acid] | – | – | – | – | – | – | – | – | 201 °C (dec.) | – |
| CCn1cc(C(=O)O)c(=O)c2cc(F)c(N3CCN(CC(=NO)c4ccc(OC)cc4)CC3)cc21 [Exp. 5, 1-Ethyl-6-fluoro-7-{4-[2-hydroxyimino-2-(4-methoxyphenyl)-ethyl]-1-piperazinyl}-4-oxo-1,4-dihydroquinoline-3-carboxylic acid] | 0.41 (≈ 0.198 µg/mL) | 1.62 (≈ 0.782 µg/mL) | 104 (≈ 50.2 µg/mL) | 25.9 (≈ 12.5 µg/mL) | 0.027 | 3.24 (≈ 1.56 µg/mL) | 13 (≈ 6.26 µg/mL) | 3.24 (≈ 1.56 µg/mL) | 221 °C (dec.) | GI50 (CCRF-CEM (leukemia)): 24.4 µM; GI50 (HL-60 (TB) (leukemia)): 17.7 µM; GI50 (RPMI-8226 (leukemia)): 38.4 µM; GI50 [4]: 46.8 µM; GI50 [5]: 52.3 µM; GI50 [6]: 93.3 µM; GI50 (SK-OV-3 (ovarian cancer)): 37.2 µM; GI50 (SK-OV-4 (ovarian cancer)): 55.1 µM; GI50 (SK-OV-5 (ovarian cancer)): > 100 µM; GI50 (CAKI-1 (renal cancer)): 6.91 µM; GI50 (UO-31 (renal cancer)): 0.55 µM; GI50 [7]: 31.8 µM; Range [7]: 182 |
| CC1COc2c(N3CCN(C)CC3)c(F)cc3c(=O)c(C(=O)O)cn1c23 (stereo not shown) [Ofloxacin, reference compound] | 1.08 (≈ 0.39 µg/mL) | 0.28 (≈ 0.101 µg/mL) | 1.08 (≈ 0.39 µg/mL) | 2.16 (≈ 0.781 µg/mL) | 0.036 | 0.069 (≈ 0.0249 µg/mL) | 4.32 (≈ 1.56 µg/mL) | 4.32 (≈ 1.56 µg/mL) | – | – |
| COc1ccc(C(CN2CCN(c3cc4c(cc3F)c(=O)c(C(=O)O)cn4-c3ccc([N+](=O)[O-])cc3F)CC2)=NO)cc1 [Exp. 8, 1-(4-Nitro-2-fluorophenyl)-6-fluoro-7-{4-[2-hydroxyimino-2-(4-methoxyphenyl)ethyl]-1-piperazinyl}-4-oxo-1,4-dihydroquinoline-3-carboxylic acid] | 0.34 (≈ 0.202 µg/mL) | 1.32 (≈ 0.783 µg/mL) | 21.1 (≈ 12.5 µg/mL) | 42.2 (≈ 25 µg/mL) | 0.08 | > 169 | 1.32 (≈ 0.783 µg/mL) | 5.28 (≈ 3.13 µg/mL) | – | – |
| CCn1cc(C(=O)O)c(=O)c2cc(F)c(N3CCN(CC(=NO)c4ccccc4)CC3)cc21 [Exp. 3, 1-Ethyl-6-fluoro-4-oxo-7-[4-(2-hydroxyimino-2-phenylethyl)-1-piperazinyl]-1,4-dihydroquinoline-3-carboxylic acid] | 0.44 (≈ 0.199 µg/mL) | 0.86 (≈ 0.389 µg/mL) | 55.3 (≈ 25 µg/mL) | 13.8 (≈ 6.24 µg/mL) | 0.22 | 3.45 (≈ 1.56 µg/mL) | – | – | 203 °C (dec.) | – |
